From PubChem BioAssay AID463102 (The Scripps Research Institute Molecular Screening Center, 2010)
Calls of active or inactive are those of the source.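 Rule for the calls: active = target enzyme band signal cut by at least 80% with no off-target protein band also blocked; inactive = weaker inhibition or any off-target band blocked.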

Key:
[1] = selectivity of GSTO1 blockers across lysate enzymes – cell lysate, MDA-MB-435 proteome, gel ABPP, endogenous enzyme, selectivity assay for GSTO1 inhibitor project, late-stage follow-up (AID 463102); conditions: competitive gel ABPP, SE-Rh probe, measured here: total off-target bands hit, stronger effect = lower value
[2] = molecular target: Glutathione S-transferase omega-1 (Homo sapiens) (UniProt P78417); experiment: as above; conditions: competitive gel ABPP, SE-Rh probe, stronger effect = higher value
Chain of Glutathione S-transferase omega-1 (Homo sapiens) (P78417 whole entry, looked up): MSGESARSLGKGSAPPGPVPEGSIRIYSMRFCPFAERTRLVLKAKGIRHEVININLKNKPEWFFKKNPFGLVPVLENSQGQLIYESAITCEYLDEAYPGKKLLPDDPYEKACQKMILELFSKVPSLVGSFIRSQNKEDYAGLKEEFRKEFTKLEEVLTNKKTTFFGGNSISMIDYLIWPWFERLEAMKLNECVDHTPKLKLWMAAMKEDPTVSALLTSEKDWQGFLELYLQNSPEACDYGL

SMILES	anti-target hits [1]	inhibition ([2]; GSTO1 inhibition, at 1 µM) [%]	inhibition ([2]; at 0.1 µM)
O=C(CCl)N1CCN(S(=O)(=O)c2ccc3ccccc3c2)CC1	5	100	57% (inactive)
COc1ccc(N(CCCNC(=O)C(F)(F)F)C(=O)CCl)cc1	0	90	27% (inactive)
O=S(=O)(c1ccc(Cl)cc1)N1CCC2(CC1)CO2	0	88	19% (inactive)
CCCCCCCCCCN(C(=O)CCl)c1ccc([N+](=O)[O-])cc1	6	100	67% (inactive)
O=c1[nH]c(CCl)nc2cc(-c3ccc(F)cc3)sc12	4	100	77% (inactive)
O=C(CCl)N(CCCNC(=O)C(F)(F)F)c1ccccc1	0	73	16% (inactive)
C#CCN(CCCN(C(=O)CCl)c1ccc([N+](=O)[O-])cc1)C(=O)C(F)(F)F	0	100	100%
C#CCCCCN(C(=O)CCl)c1ccc([N+](=O)[O-])cc1	0	100	51% (inactive)
O=C(CCl)N(CCCCCNC(=O)C(F)(F)F)c1ccc([N+](=O)[O-])cc1	1	100	90% (inactive)
C#CCCC(=O)NCCCN(C(=O)CCl)c1ccc([N+](=O)[O-])cc1	0	100	59% (inactive)
Cc1ccc2c(c1)c1c3n2CCN(C(=O)CCl)C3CCC1 (stereo not drawn)	6	93	38% (inactive)
O=C(CCl)N(CCCCNC(=O)C(F)(F)F)c1ccc([N+](=O)[O-])cc1	0	100	99%
COc1ccc(C(CCN(Cc2ccc(OC)c(OC)c2)C(=O)CCl)c2ccccc2)cc1 (stereo not drawn)	9	100	81% (inactive)
O=C(CCl)N(CCCNC(=O)C(F)(F)F)c1cccc(C(F)(F)F)c1	0	100	62% (inactive)
Cc1cccc(CN2CCN(C(=O)CCl)CC2)c1	2	89	26% (inactive)

Continued, values first:

anti-target hits [1]	inhibition ([2]; GSTO1 inhibition, at 1 µM) [%]	inhibition ([2]; at 0.1 µM)	SMILES
2	100	93% (inactive)	O=C(NC1CCCCC1)C(c1cccnc1)N(C(=O)CCl)c1ccc(Cl)c(Cl)c1 (stereo not drawn)
3	93	28% (inactive)	Cc1nn(-c2ccccc2)c(Cl)c1CN(C(=O)CCl)c1ccc(Cl)cc1
0	100	87%	COc1ccc(C(C(=O)NC2CCCCC2)N(C(=O)CCl)c2ccc(Cl)cc2)cc1 (stereo not drawn)
2	100	100% (inactive)	O=C(NC1CCCCC1)C(c1cccnc1)N(C(=O)CCl)c1cccc(Cl)c1 (stereo not drawn)
0	55	10% (inactive)	Cc1ccc(N(CCCNC(=O)C(F)(F)F)C(=O)CCl)cc1
1	100	98% (inactive)	COc1ccc(C(C(=O)NC2CCCCC2)N(C(=O)CCl)c2cccc(Cl)c2)cc1 (stereo not drawn)
1	100	45% (inactive)	COc1ccc(N(C(=O)CCl)C(C(=O)NC2CCCCC2)c2cccnc2)cc1 (stereo not drawn)
2	90	29% (inactive)	O=C(NCCCN(C(=O)CCl)c1ccc([N+](=O)[O-])cc1)c1ccc(F)cc1
0	62	16% (inactive)	CC(=O)NCCCN(C(=O)CCl)c1ccc([N+](=O)[O-])cc1
1	55	0% (inactive)	O=C(NC1CCCCC1)C(c1cccnc1)N(C(=O)CCl)c1ccc(C(F)(F)F)cc1 (stereo not drawn)
1	100	83% (inactive)	C#CCCCCNC(=O)C(c1ccc(OC)cc1)N(C(=O)CCl)c1cccc(Cl)c1 (stereo not drawn)
2	100	48% (inactive)	C#CCCCCNC(=O)C(c1cccnc1)N(C(=O)CCl)c1ccc(F)cc1 (stereo not drawn)
2	93	34% (inactive)	O=C(NCCCN(C(=O)CCl)c1ccc([N+](=O)[O-])cc1)c1ccccc1
2	100	71% (inactive)	O=C(NC1CCCCC1)C(c1cccnc1)N(C(=O)CCl)c1ccc(F)cc1 (stereo not drawn)
1	100	69% (inactive)	C#CCNC(=O)C(c1ccc(OC)cc1)N(C(=O)CCl)c1cccc(Cl)c1 (stereo not drawn)
0	94	25% (inactive)	O=C(CCl)N(CCCNC(=O)C(F)(F)F)c1ccc(F)cc1
2	100	79% (inactive)	O=C(NC1CCCCC1)C(c1cccnc1)N(C(=O)CCl)c1ccc(Cl)cc1 (stereo not drawn)
0	100	85%	O=C(CCl)N(CCCNC(=O)C(F)(F)F)c1ccc(Cl)cc1
2	92	28% (inactive)	O=C(NC1CCCCC1)C(c1cccnc1)N(C(=O)CCl)c1cccc(C(F)(F)F)c1 (stereo not drawn)
0	100	64% (inactive)	C#CCNC(=O)C(c1ccc(OC)cc1)N(C(=O)CCl)c1ccc(Cl)cc1 (stereo not drawn)
4	100	85% (inactive)	COc1ccc(N(C(=O)CCl)C(C(=O)NCCc2ccccc2)c2cccs2)cc1Cl (stereo not drawn)
